Legend:
[1] = test system: Rhizoctonia damping-off pathogen (Rhizoctonial solani); test: Test Example 1: cucumber seed treatment, Rhizoctonia damping-off control; type: in vivo; conditions: cucumber (Sagamihanjiro) seed treatment, 9 days
Procedure: A DMSO solution of the compound I and a DMSO solution of tolclofos-methyl were respectively prepared. These solutions were mixed to prepare a DMSO solution containing predetermined concentrations of the compound I and tolclofos-methyl. Ten (10) μL of the DMSO solution and 1 g of cucumber (Sagamihanjiro) seeds were mixed by shaking in a 15-ml conical tube and then allowed to stand overnight to prepare treated seeds. A plastic pot was filled with sandy soil and the treated seeds were sown on it and then covered with sandy soil which had been mixed with a bran culture of Rhizoctonia damping-off pathogen (Rhizoctonial solani). The sown seeds were watered and then cultured in a greenhouse at 20 to 24° C. for 9 days. The occurrence of Rhizoctonia damping-off diseases was checked and the incidence of disease was calculated by Equation 1.
For comparison, a DMSO solution containing a predetermined concentration of tolclofos-methyl was prepared and subjected to the same test and then the incidence of disease was determined.
(§1) In order to calculate a control value, the same test was conducted in which the plants had been treated with none of the test compounds and the incidence of disease was determined.
(§2) The control value was calculated by the Equation 2 based on the incidence of disease thus determined. […]

[2] = test system: Rhizoctonia damping-off pathogen (Rhizoctonial solani); test: Test Example 2: spray to the foot of rice, Rhizoctonia damping-off control; type: in vivo; conditions: rice (Nipponbare), tolclofos-methyl 50 alone, 5 days
Procedure: A plastic pot was filled with sandy soil and seeds of rice (Nipponbare) were sown on it, followed by cultivation in a greenhouse for 5 weeks. A wettable powder of the compound I was prepared by mixing 10 parts of the compound I, 35 parts of a mixture of white carbon and a polyoxyethylene alkyl ether sulfate ammonium salt (weight ratio of 1:1) and 55 parts of water, followed by grinding the mixture. A wettable powder of tolclofos-methyl was prepared by mixing 10 parts of […], 35 parts of a mixture of white carbon and a polyoxyethylene alkyl ether sulfate ammonium salt (weight ratio of 1:1) and 55 parts of water, followed by grinding the mixture. Each of the wettable powder thus prepared was diluted with water, respectively, followed by mixing together to prepare a mixed solution containing predetermined concentrations of the compound I and tolclofos-methyl. The mixed solution was sprayed to the foot of the rice. […] The occurrence of Rhizoctonia damping-off diseases was checked and the incidence of disease was calculated by Equation 3. […]
as §1, §2

COP(=S)(OC)Oc1c(Cl)cc(C)cc1Cl [Tolclofos-methyl]
Control value ([1]; tolclofos-methyl 10 g/100 kg seeds alone): 38 | Control value ([1]; tolclofos-methyl 40 g/100 kg seeds alone): 75 | Control value [2]: 58

Source: patent publication US8669205B2, “Composition and method for controlling plant diseases” (Sumitomo Chemical Company, Limited, priority 2009, dated 2014)
